pEC50, pIC50: −log10 of the molar value.
Test system: histone H3 acetylation (lysine 9+14) in HeLa cervical carcinoma cells
Assay: Cellular histone H3 acetylation assay
Assay type: cell-based
Settings: Homo sapiens, 24 h incubation with compound, read-out: EC50 (histone H3 acetylating cellular potency)
Description: To assess the cellular efficacy of an histone deactylase inhibitor in vitro, an assay is set up in black clear-bottom 96-well plates and optimized for use on the Cellomics “ArrayScan II” platform for a quantitative calculation of histone acetylation. The protocol uses a polyclonal rabbit antibody, specifically binding to acetylated lysine 9+14 of human histone H3 on fixed cells with an Alexa Fluor 488 labeled goat ant rabbit-IgG used for counterstaining (modified from Braunger et al. MCR annual conference 2003, Abstract 4556).
5×10^3 HeLa cervical carcinoma cells/well (ATCC CCL-2) in 200 μl Dulbecco's modified Eagle's medium (DMEM) containing 10% fetal calf serum are seeded at day 1 in Packard view plates and incubated for 24 h under standard cell culture conditions. On day 2, 2 μl test compound (100× final concentration) is added and incubation continued for further 24 h. On day 3, the culture medium is discarded and attached cells fixed for 15 min at room temperature by addition of 100 μl fixation buffer (3.7% v:v formaldehyde in phosphate buffered saline/PBS). After discarding the fixation buffer and one wash with PBS, cells are permeabilized at room temperature by addition of 100 μl/well permeabilization buffer (30.8 mM NaCl, 0.54 mM Na2HPO4, 0.31 mM KH2PO4, 5% v:v Triton X-100) for 15 min at room temperature. After discarding the permeabilization buffer and washing twice with 100 μl/well blocking solution (PBS with 0.05% v:v Tween 20 and 5% w:v milk powder) at room temperature, the 1st antibody (anti-K9+14 histone H3 antibody, Calbiochem No. 382158) in blocking solution (50 μl/well) is added. After incubation for 1 h at 37° C., the wells are washed twice at room temperature with 100 μl/well blocking solution before addition of the 2nd antibody (goat-anti-rabbit Alexa Fluor 488; MoBiTec No. A-11008) in blocking solution (50 μl/well). After further incubation for 1 h at 37° C., wells are washed twice with 100 μl/well blocking solution room temperature. Finally, 100 d/well PBS are added and image analysis performed on the Cellomics “ArrayScan II” platform. For calculation of EC50 values, the nuclear fluorescence in cells treated with and without a reference HDAC inhibitor (eg NVP-LBH-589) are taken as a positive and negative control. For EC50 determination, the percentage of positive cells is determined and EC50 calculation done from concentration-effect curves by means of non-linear regression.

pEC50	Structure (SMILES)
5.28 to 6.55	COc1ccc(-c2ccc(S(=O)(=O)n3ccc(/C=C/C(=O)Nc4ccccc4N)c3)cc2)cn1 [Compound 5, (E)-N-(2-Amino-phenyl)-3-{1-[4-(6-methoxy-pyridin-3-yl)-benzenesulfonyl]-1H-pyrrol-3-yl}-acrylamide]
5.28 to 6.55	Nc1ccc(-c2ccc(S(=O)(=O)n3ccc(/C=C/C(=O)Nc4ccccc4N)c3)cc2)cn1 [Compound 6, (E)-N-(2-Amino-phenyl)-3-{1-[4-(6-amino-pyridin-3-yl)-benzenesulfonyl]-1H-pyrrol-3-yl}-acrylamide]
5.28 to 6.55	Cn1cc(-c2ccc(S(=O)(=O)n3ccc(/C=C/C(=O)Nc4ccccc4N)c3)cc2)cn1 [Compound 7, (E)-N-(2-Amino-phenyl)-3-{1-[4-(1-methyl-1H-pyrazol-4-yl)-benzenesulfonyl]-1H-pyrrol-3-yl}-acrylamide]
5.36 to 7.57	CN(C)CCNC(=O)c1cccc(-c2ccc(S(=O)(=O)n3ccc(C=CC(=O)NO)c3)cc2)c1 [Compound 25, 4′-[3-(E)-2-Hydroxycarbamoyl-vinyl)-pyrrole-1-sulfonyl]-biphenyl-3-carboxylic acid (2-dimethylamino-ethyl)-amide]
5.36 to 7.57	O=C(/C=C/c1ccn(S(=O)(=O)c2ccc(-c3ccc(CN4CCOCC4)cc3)s2)c1)NO [Compound 54, (E)-N-Hydroxy-3-{1-[5-(4-morpholin-4-ylmethyl-phenyl)-thiophene-2-sulfonyl]-1H-pyrrol-3-yl}-acrylamide]
5.36 to 7.57	Nc1ccccc1NC(=O)/C=C/c1ccn(S(=O)(=O)c2cccc(-c3cccc(CCN4CCOCC4)c3)c2)c1 [Compound 18, (E)-N-(2-Amino-phenyl)-3-{1-[3′-(2-morpholin-4-yl-ethyl)-biphenyl-3-sulfonyl]-1H-pyrrol-3-yl}-acrylamide]
5.36 to 7.57	O=C(/C=C/c1ccn(S(=O)(=O)c2cccc(-c3ccc(OCCN4CCOCC4)cc3)c2)c1)NO [Compound 34, (E)-N-Hydroxy-3-{1-[4′-(2-morpholin-4-yl-ethoxy)-biphenyl-3-sulfonyl]-1H-pyrrol-3-yl}-acrylamide]
5.36 to 7.57	Nc1ccc(-c2cccc(S(=O)(=O)n3ccc(/C=C/C(=O)Nc4ccccc4N)c3)c2)cn1 [Compound 17, (E)-N-(2-Amino-phenyl)-3-{1-[3-(6-amino-pyridin-3-yl)-benzenesulfonyl]-1H-pyrrol-3-yl}-acrylamide]
5.36 to 7.57	O=C(/C=C/c1ccn(S(=O)(=O)c2ccc(-c3ccc(CCN4CCOCC4)cc3)cc2)c1)NO [Compound 8, (E)-N-Hydroxy-3-{1-[4′-(2-morpholin-4-yl-ethyl)-biphenyl-4-sulfonyl]-1H-pyrrol-3-yl}-acrylamide]
5.36 to 7.57	CN1CCN(Cc2ccc(-c3cccc(S(=O)(=O)n4ccc(/C=C/C(=O)NO)c4)c3)cc2)CC1 [Compound 62, (E)-N-Hydroxy-3-{1-[4′-(4-methyl-piperazin-1-ylmethyl)-biphenyl-3-sulfonyl]-1H-pyrrol-3-yl}-acrylamide]
5.36 to 7.57	CN(C)Cc1ccc(-c2ccc(S(=O)(=O)n3ccc(/C=C/C(=O)NO)c3)cc2)cc1 [Compound 26, (E)-3-[1-(4′-Dimethylaminomethyl-biphenyl-4-sulfonyl)-1H-pyrrol-3-yl]-N-hydroxy-acrylamide]
5.36 to 7.57	CN(C)CCNC(=O)c1ccc(-c2cccc(S(=O)(=O)n3ccc(C=CC(=O)NO)c3)c2)cc1 [Compound 30, 3′-3-((E)-2-Hydroxycarbamoyl-vinyl)-pyrrole-1 sulfonyl]-biphenyl-4-carboxylic acid (2-dimethylamino-ethyl)-amide]
5.36 to 7.57	CS(=O)(=O)Nc1ccc(-c2ccc(S(=O)(=O)n3ccc(/C=C/C(=O)NO)c3)cc2)cc1 [Compound 23, (E)-N-Hydroxy-3-[1-(4′-methanesulfonylamino-biphenyl-4-sulfonyl)-1H-pyrrol-3-yl]-acrylamide]
5.36 to 7.57	CN(C)Cc1ccccc1-c1ccc(S(=O)(=O)n2ccc(/C=C/C(=O)NO)c2)cc1 [Compound 27, (E)-3-[1-(2′-Dimethylaminomethyl-biphenyl-4-sulfonyl)-1H-pyrrol-3-yl]-N-hydroxy-acrylamide]
5.36 to 7.57	O=C(/C=C/c1ccn(S(=O)(=O)c2cccc(-c3ccc(CN4CCOCC4)cc3)c2)c1)NO [Compound 36, (E)-N-Hydroxy-3-[1-(4′-morpholin-4-ylmethyl-biphenyl-3-sulfonyl)-1H-pyrrol-3-yl]-acrylamide]
5.36 to 7.57	O=C(/C=C/c1ccn(S(=O)(=O)c2cccc(-c3ccc(OCCN4CCCC4)cc3)c2)c1)NO [Compound 43, (E)-N-Hydroxy-3-{1-[4′-(2-pyrrolidin-1-yl-ethoxy)-biphenyl-3-sulfonyl]-1H-pyrrol-3-yl}-acrylamide]
5.36 to 7.57	O=C(/C=C/c1ccn(S(=O)(=O)c2cccc(-c3cccc(CN4CCOCC4)c3)c2)c1)NO [Compound 31, (E)-N-Hydroxy-3-[1-(3′-morpholin-4-ylmethyl-biphenyl-3-sulfonyl)-1H-pyrrol-3-yl]-acrylamide]
5.36 to 7.57	O=C(/C=C/c1ccn(S(=O)(=O)c2cccc(-c3cccc(CCN4CCOCC4)c3)c2)c1)NO [Compound 20, (E)-N-Hydroxy-3-{1-[3′-(2-morpholin-4-yl-ethyl)-biphenyl-3-sulfonyl]-1H-pyrrol-3-yl}-acrylamide]
5.36 to 7.57	O=C(/C=C/c1ccn(S(=O)(=O)c2ccc(-c3ccc(OCCN4CCOCC4)cc3)s2)c1)NO [Compound 56, (E)-N-Hydroxy-3-(1-{5-[4-(2-morpholin-4-yl-ethoxy)-phenyl]-thiophene-2-sulfonyl}-1H-pyrrol-3-yl)-acrylamide]
5.36 to 7.57	CN(C)CCNC(=O)c1ccc(-c2ccc(S(=O)(=O)n3ccc(C=CC(=O)NO)c3)cc2)cc1 [Compound 24, 4′-[3-(E)-2-Hydroxycarbamoyl-vinyl)-pyrrole-1-sulfonyl]-biphenyl-4-carboxylic acid (2-dimethylamino-othyl)-amide]
5.36 to 7.57	CN(C)Cc1ccc(-c2ccc(S(=O)(=O)n3ccc(/C=C/C(=O)NO)c3)s2)cc1 [Compound 46, (E)-3-{1-[5-(4-Dimethylaminomethyl-phenyl)-thiophene-2-sulfonyl]-1H-pyrrol-3-yl}-N-hydroxy-acrylamide]
5.36 to 7.57	O=C(/C=C/c1ccn(S(=O)(=O)c2ccc(-c3ccc(OCCCN4CCOCC4)cc3)s2)c1)NO [Compound 57, (E)-N-Hydroxy-3-(1-{5-[4-(3-morpholin-4-yl-propoxy)-phenyl]-thiophene-2-sulfonyl}-1H-pyrrol-3-yl)-acrylamide]
5.36 to 7.57	COCCNCc1ccc(-c2cccc(S(=O)(=O)n3ccc(C=CC(=O)NO)c3)c2)cc1 [Compound 58, (E)-N-Hydroxy-3-(1-{4′-[(2-methoxy-othylamino)-methyl]-biphenyl-3-sulfonyl}-1H-pyrrol-3-yl)-acrylamide]
5.36 to 7.57	CN1CCN(c2cc(-c3ccc(S(=O)(=O)n4ccc(/C=C/C(=O)NO)c4)s3)ccn2)CC1 [Compound 42, (E)-N-Hydroxy-3-(1-{5-[2-(4-methyl-piperazin-1-yl)-pyridin-4-yl]-thiophene-2-sulfonyl}-1H-pyrrol-3-yl)-acrylamide]
5.36 to 7.57	CN(C)Cc1ccc(-c2cccc(S(=O)(=O)n3ccc(/C=C/C(=O)NO)c3)c2)cc1 [Compound 37, (E)-3-[1-(4′-Dimethylaminomethyl-biphenyl-3-sulfonyl)-1H-pyrrol-3-yl]-N-hydroxy-acrylamide]

Test system: HeLa cervical carcinoma cell line
Assay: Cellular cytotoxicity assay (Alamar Blue / Resazurin)
Assay type: cell-based
Settings: Homo sapiens; HeLa cells, 48 hours incubation; read-out: IC50 (anti-proliferative/cytotoxic potency)
Description: The anti-proliferative activity of the histone deacetylase inhibitory compounds as described herein, is evaluated with the HeLa cervical carcinoma cell line (ATCC CCL2) using the Alamar Blue (Resazurin) cell viability assay (O'Brien et al. Eur J Biochem 267, 5421-5426, 2000). Resazurin is reduced to the fluorescent resorufin by cellular dehydrogenase activity, correlating with viable, proliferating cells. Test compounds are dissolved as 10 mM solutions in dimethylsulfoxide (DMSO) and subsequently diluted in semi-logarithmic steps. HeLa cells are seeded into 96 well flat bottom plates at a density of 3000 cells per well in a volume of 200 μl per well. 24 hours after seeding 1 μl each of the compound dilutions are added into each well of the 96 Well plate. Each compound dilution is tested as quadruplicates. Wells containing untreated control cells are filled with 200 μl DMEM medium containing 0.5% v:v DMSO. The cells are then incubated with the substances for 48 hours at 37° C. in a humidified atmosphere containing 5% carbon dioxide. To determine the viability of the cells, 20 μl of an Resazurin solution (Sigma; 90 mg/l) are added. After 4 hours incubation at 37° C. the fluorescence is measured at an extinction of 544 nm and an emission of 590 nm. For the calculation of the cell viability the emission value from untreated cells is set as 100% viability and the emission rates of treated cells are set in relation to the values of untreated cells. Viabilites are expressed as % values. The corresponding IC50 values of the compounds for cytotoxic activity are determined from the concentration-effect curves by means of non-linear regression.

Structure (SMILES)	pIC50
COc1ccc(-c2ccc(S(=O)(=O)n3ccc(/C=C/C(=O)Nc4ccccc4N)c3)cc2)cn1 [Compound 5, (E)-N-(2-Amino-phenyl)-3-{1-[4-(6-methoxy-pyridin-3-yl)-benzenesulfonyl]-1H-pyrrol-3-yl}-acrylamide]	5.64 to 7.11
Nc1ccc(-c2ccc(S(=O)(=O)n3ccc(/C=C/C(=O)Nc4ccccc4N)c3)cc2)cn1 [Compound 6, (E)-N-(2-Amino-phenyl)-3-{1-[4-(6-amino-pyridin-3-yl)-benzenesulfonyl]-1H-pyrrol-3-yl}-acrylamide]	5.64 to 7.11
Cn1cc(-c2ccc(S(=O)(=O)n3ccc(/C=C/C(=O)Nc4ccccc4N)c3)cc2)cn1 [Compound 7, (E)-N-(2-Amino-phenyl)-3-{1-[4-(1-methyl-1H-pyrazol-4-yl)-benzenesulfonyl]-1H-pyrrol-3-yl}-acrylamide]	5.64 to 7.11

— patent publication US7666868B2, “N-sulphonylpyrroles and their use as histone deacetylase inhibitors” (4SC AG, priority 2005, dated 2010)
